Laboratory results published in US9326938B2 (National Yang Ming Unviversity, priority 2013, dated 2016).

Experiments:
[1] = tested on: HCT116 tumor-bearing mice; assay: In vivo antitumor activity; design: species or system Balb-c/nude mice; details: 10 mg/kg i.v. on days 0 and 7, compared to control mice
Procedure: (§1) The HCT116 cells were transplanted subcutaneously into the rear of 4-week female Balb-c/nude mice (1×10^6 cells/0.1 mL) At 4-6 weeks post-transplantation, HCT116 tumor-bearing mice (tumor volume: approximately 500 mm^3) were used in the antitumor activity study. Mice were treated i.v. via the tail vein on days 0 and 7. Animals were then injected with a drug PBS solution (free Dox, Dox-loaded polymer-incorporated nanoparticles, and Dox-loaded oligomer-contained nanoparticle complexes at a dose of 10 mg/kg). Tumor size was measured three weekly using a Vernier's caliper. To evaluate animal wellness and clinical status, the body weight of mice was recorded.

[2] = Body weight of mice in antitumor study; assay type: in vivo, Balb-c/nude mice; details: 10 mg/kg i.v. on days 0 and 7, during the administration period
Procedure: as §1

## COc1cccc2c1C(=O)c1c(O)c3c(c(O)c1C2=O)C[C@@](O)(C(=O)CO)C[C@@H]3O[C@H]1C[C@H](N)[C@H](O)[C@H](C)O1 [free Dox, doxorubicin]
[1]
  Tumor growth: inhibited tumor growth
[2]
  Body weight of mice: obvious weight loss
